According to patent EP0414895A1, “OROTATE OF $g(a)-AMINO-$g(b)-PHENYL-BUTYRIC ACID” (NAUCHNO-PROIZVODSTVENNOE OBIEDINENIE "BIOLAR", priority 1989, dated 1990):
Structures can show the parent of a compound that is named as a salt.

Tests used:
Ratten [1] = assay: Thresholds of emotional reactivity and aggressiveness on electric pain stimulation, rats; format: in vivo
Mäuse [2] = assay: Hypoxia by subcutaneous Natriumnitroprussid, survival, mice; format: in vivo
Description: (§1) Die […] Hypoxie wurde durch die subkutane Einführung von Natriumnitroprussid in einer Dosis von 20 mg/kg den Gruppen von Mäusen und Ratten zu I0 Stück in der Gruppe erzeugt. Natriumnitroprussid wurde 60 min nach der Einführung der Prüfverbindungen verabreicht. Die Angaben sind in Tabelle I5 (für Mäuse) und I6 (für Ratten) angeführt.

[3] = Habituation study: body mass; format: in vivo, Mäuse; conditions: 75 mg/kg bzw. 48 mg/kg i.p. twice daily, 15 to 20 days
Description: (§2) Zur Untersuchung der Gewöhnung an die Wirkung der erfindungsgemässen Verbindung wurde die Dynamik der Benehmungseffekte an Mäusen beiderlei Geschlechts untersucht. In jeder Gruppe waren je I2 bis I8 Tiere. Die erfindungsgemässe Verbindung und γ -Amino- β - -phenylbuttersäurehydrochlorid wurden intraperitoneal in Dosen von 75 mg/kg bzw. 48 mg/kg zweimal am Tag eingeführt. Es wurden die Körpermasse, der Einfluss auf die motorische Aktivität (im Aktometer) und auf die emotionelle Reaktivität aud dem Wege der elektrischen Schmerzreizung untersucht. Die Tiere wurden innerhalb von 15 bis 20 Tagen untersucht. […] Der sedative Effekt der beanspruchten Verbindung war während der ganzen Versuchsperiode aufrechterhalten (Tabelle 7).

Ratten [4] = assay: Hypoxia by subcutaneous Natriumnitroprussid, survival, rats; format: in vivo; conditions: Natriumnitroprussid 20 mg/kg s.c.
Description: as §1

Mäuse [5] = assay: Conflict situation (punished water intake); format: in vivo; conditions: 45 to 120 min before test
Excerpt: Es wurde auch die Wirkung der erfindungsgemässen Verbindung unter Bedingungen einer Konfliktsituation an männlichen Mäusen (Gruppe aus I0 Mäusen) untersucht. Vorläufig wurde den Mäusen das Wasser für 48 Stunden entzogen, danach wurden ihnen 45 bis I20 Minuten vor dem Versuch die Verbindungen intraperitoneal eingeführt und die Tiere wurden in der Kammer untergebracht, wo sich eine Wassertränke befand. Im Augenblick der Wassereinnahme bekam es einen elektrischen Schlag, der am Zähler registriert wurde. In der Prüfkammer befand sich das Tier innerhalb von 3 Minuten. Für diese Zeit wurden die Zahl der Wassereinnahmen sowie die Lazenzperiode - die Zeit zwischen dem Unterbringen des Tiers in der Kammer und der ersten Wassereinnahme - registriert. Die durchschnittlichen Angaben sind in der Tabelle 5 angeführt.

Mäuse [6] = assay: Swimming test at 40°C; format: in vivo; conditions: for Schwimmzeit: 40°C
Excerpt: Der Einfluss der beanspruchten Verbindung auf die physische Toleranz der Tiere wurde nach dem Schwimmtest der Mäuse und Ratten untersucht. Die Versuche wurden in einer Wanne von […] Fläche durchgeführt. Die Tiergruppe (8 bis I0 Mäuse oder Ratten) wurde ins Wasser gebracht und es wurde die Zeit der Schwimmfähigkeit bestimmt. Die neue Verbindung und γ -Amino- β - -phenylbuttersäurehydrochlorid wurden enteral und intraperitoneal I Stunde oder 3 Stunden vor dem Schwimmbeginn eingeführt. Die Untersuchung wurde sowohl nach der einmaligen als auch nach der chronischen (innerhalb von 20 Tagen einmal täglich) Einführung der genannten Verbindungen durchgeführt. Die Versuche wurden bei 3 Temperaturen angestellt: 2°C (Tabelle I7), 25°C (Tabelle I8) und 40°C (Tabelle I9).

Mäuse [7] = assay: Habituation study: motor activity in actometer on repeated dosing; format: in vivo
Description: as §2

Ratten [8] = assay: Natriumäthaminal intoxication, sleep duration, rats; format: in vivo
Description: Ausserdem wurde die Wirkung der beanspruchten Verbindung auf die durch Natriumäthaminal erzeugte Intoxikation untersucht. Die Versuche wurden an männlichen Mäusen und Ratten in Gruppen zu 8 bis I0 Tieren angestellt. Natriumäthaminal wurde intraperitoneal in einner Dosis von I00 mg/kg I5 min nach der enteralen Verabreichung der beanspruchten Verbindung oder der Kontrollarzneimittel eingeführt. Es wurde die einmalige und chronische Einwirkung (während I2 bis I4 Tage einmal täglich) von der neuen Verbindung, γ -Amino- β - -phenylbuttersäurehydrochlorid und Pyrazetam untersucht. Es wurde die Dauer der Seitenlage - des Schlafs der Tiere bestimmt. Die Ergebnisse dieser Untersuchung sind in Tabelle 23 (für Mäuse) und 24 (für Ratten) angeführt.

Mäuse [9] = assay: Habituation study: electric pain stimulation thresholds on repeated dosing; format: in vivo
Excerpt: (§3) In einer Kammer von 20 x 20 x 25 cm Ausmass, deren Boden - ein Metallgitter aus Stangen darstellt, wurde ein Paar Tiere untergebracht (männliche Mäuse) und es wurde der Wechselstrom durchgelassen. Die Spannung wurde dosenartig auf 5 V solange erhöht, bis der Strom das Piepsen (die Schwelle der emotionellen Reaktivität) und die Schlägerei der Tiere (die Schwelle der Aggressivität) auslöste. Jede Spannungsgrösse wurde innerhalb von 5 sec zweimal in einem Zeitabstand von 20 bis 50 Sekunden aufrechterhalten. Die Kontrolle des Benehmens der Tiere begann man I0 Minuten nach der Einführung der oben erwähnten Verbindungen. Die Angaben sind in Tabellen 3, 4 angeführt.
as §2

Mäuse [10] = assay: Thresholds of emotional reactivity and aggressiveness on electric pain stimulation, mice; format: in vivo
Excerpt: Es wurde auch die emotionelle Aktivität und Aggressivität der Tiere auf dem Wege der elektrischen Schmerzreizung untersucht.
as §3

Ratten [11] = assay: Cold stress at 2°C, rectal temperature, rats; format: in vivo; conditions: for Rektaltemperatur nach I Stunde an der Kälte: 2°C; for Rektaltemperatur nach I Stunde: 1 h after dosing at room temperature
Description: Aus den in Tabellen angeführten Ergebnissen ist zu ersehen, dass die einmalige Einführung der neuen Verbindung die Schwimmdauer der Mäuse und Ratten wesentlich nicht beeinflusst. Nach der 20 Tage langen chronischen Einführung der neuen Verbindung wird die Schwimmdauer hingegen zuverlässig grösser - (Tabelle I7) um das I,5fache im kalten Wasser und um das 2,5fache bei einer Temperatur von 40°C (Tabelle I9) im Vergleich zu γ -Amino- β -phenylbuttersäurehydrochlorid. Auf diese Weise erhöht die chronische Einführung der neuen Verbindung wesentlich die physische Toleranz der Tiere. Ausserdem wurde auch die Toleranz der Tiere gegen den Kältestress bestimmt. Die Untersuchung wurde bei einer Temperatur von 2°C an Mäusen und Ratten durchgeführt, indem jedes Tier abgesondert in der Einzelkammer von I5 x 20 x 20 cm Ausmass untergebracht wurde. Es wurde die Rektaltemperatur vor der Einführung der neuen Verbindung, des γ -Amino- β - phenylbuttersäurehydrochlorids und der physiologischen Kontrollösung eine Stunde nach der Einführung bei Zimmertemperatur und nach I Stunde und 2 Stunden in der Kälte gemessen. Die Versuche wurden an einer Mäusengruppe (I0 Stück) (Tabelle 20) und an einer Rattengruppe (8 Stück) (Tabelle 2I) bei der einmaligen und chronischen Einführung innerhalb von 22 bzw. I6 Tagen einmal pro Tag angestellt.

[12] = day 1, 48 mg/kg i.p. twice daily
[13] = day 5, 48 mg/kg i.p. twice daily
[14] = day 10, 48 mg/kg i.p. twice daily
[15] = day 15, 48 mg/kg i.p. twice daily
[16] = 50 mg/kg chronic, 14 days + Natriumäthaminal 100 mg/kg i.p.
[17] = 50 mg/kg single + Natriumäthaminal 100 mg/kg i.p.
[18] = day 1, 75 mg/kg i.p. twice daily
[19] = day 5, 75 mg/kg i.p. twice daily
[20] = day 10, 75 mg/kg i.p. twice daily
[21] = day 15, 75 mg/kg i.p. twice daily

With `NCC(CC(=O)O)c1ccccc1` (stereo not drawn) [γ-Amino-β-phenylbutter-säurehydrochlorid, γ -Amino- β -phenylbuttersäurehydrochlorid, reference compound] the “Spannung in V, die Schwelle der Aggressivität” value (Ratten [1]; 80,0 mg/kg) was 44,6±0,6 V, the Überlebensdauer (Mäuse [2]; Natriumnitroprussid 20 mg/kg s.c., 35 mg/kg chronic, 10 days once daily) was 515,6±34 sec and the Körpermasse [3] was “veränderte sich wesentlich nicht”. The Überlebensdauer (Ratten [4]; 35 mg/kg chronic, 10 days once daily) was 876,6±90 sec, the Überlebensdauer (Ratten [4]; 35 mg/kg single) was 1359,0±100 sec and the Latenzperiode (Mäuse [5]; 16 mg/kg i.p.) was 36,4±6,8 sec. The Schwimmzeit (Mäuse [6]; 35 mg/kg chronic, 20 days) was 58±7,2 min, the Schwimmzeit (Mäuse [6]; 35 mg/kg single) was 37,8±8 min and the “Anzahl der Impulse im Aktometer innerhalb von 45 min” value (Mäuse [7]; [12]) was 75±19. For the same compound, the “Anzahl der Impulse im Aktometer innerhalb von 45 min” value (Mäuse [7]; [13]) was 223±36, the “Anzahl der Impulse im Aktometer innerhalb von 45 min” value (Mäuse [7]; [14]) was 257±38 and the “Anzahl der Impulse im Aktometer innerhalb von 45 min” value (Mäuse [7]; [15]) was 283±47. The Schlafdauer (Ratten [8]; [16]) was 290,0±17 min, the Schlafdauer (Ratten [8]; [17]) was 288,6±27 min and the “Spannung in V, die Schwelle der Aggressivität” value (Mäuse [9]; [12]) was 29±2 V. The “Spannung in V, die Schwelle der emotionellen Reaktivität” value (Mäuse [9]; [12]) was 24±2 V, the “Spannung in V, die Schwelle der Aggressivität” value (Mäuse [9]; [13]) was 27±4 V and the “Spannung in V, die Schwelle der emotionellen Reaktivität” value (Mäuse [9]; [13]) was 23±2 V. The “Spannung in V, die Schwelle der Aggressivität” value (Mäuse [9]; [14]) was 26±3 V, the “Spannung in V, die Schwelle der emotionellen Reaktivität” value (Mäuse [9]; [14]) was 20±2 V and the “Spannung in V, die Schwelle der Aggressivität” value (Mäuse [9]; [15]) was 24±2 V. The “Spannung in V, Schwelle der emotionellen Reaktivität” value (Mäuse [10]; 100 mg/kg) was 24,2±0,8 V, the “Rektaltemperatur nach I Stunde an der Kälte” value (Ratten [11]; 35 mg/kg chronic, 16 days) was 23,2±0,2 and the “Rektaltemperatur nach I Stunde” value (Ratten [11]; 35 mg/kg chronic, 16 days) was 30,4±0,3.
For “γ -Amino- β -phenylbuttersäureorotat [Erfindungsgemässe Verbindung]”, the “Spannung in V, die Schwelle der emotionnellen Reaktivität” value (Ratten [1]; 20,0 mg/kg) was 23,4±0,8 V, the “Spannung in V, die Schwelle der emotionnellen Reaktivität” value (Ratten [1]; 40,0 mg/kg) was 27,6±0,4 V and the “Spannung in V, die Schwelle der Aggressivität” value (Ratten [1]; 60,0 mg/kg) was 44,8±0,6 V. For the same compound, the “Spannung in V, die Schwelle der emotionnellen Reaktivität” value (Ratten [1]; 150,0 mg/kg) was 34,2±2,2 V, the Überlebensdauer (Mäuse [2]; Natriumnitroprussid 20 mg/kg s.c. 60 min after compound, 50 mg/kg single) was 740,3±68 sec and the Überlebensdauer (Mäuse [2]; Natriumnitroprussid 20 mg/kg s.c., 50 mg/kg chronic, 10 days once daily) was 1083,7±80 sec. For the same compound, the Körpermasse [3] was “veränderte sich wesentlich nicht”, the Überlebensdauer (Ratten [4]; 50 mg/kg chronic, 10 days once daily) was 1133,0±54 sec and the Überlebensdauer (Ratten [4]; 50 mg/kg single) was 1247,0±94 sec. The “Anzahl der Wassereinnahmen für 3 Minuten” value (Mäuse [5]; 25 mg/kg i.p.) was 5,6±0,7, the Latenzperiode (Mäuse [5]; 25 mg/kg i.p.) was 52,4±20 sec and the Schwimmzeit (Mäuse [6]; 50 mg/kg single) was 57,6±5,6 min. The “Schwimmdauer grösser um das ...fache bei einer Temperatur von 40°C” value (Mäuse [6]; after 20 days chronic administration, Tabelle I9, compared with γ-Amino-β-phenylbuttersäurehydrochlorid as worded) was 2,5 fache, the “Anzahl der Impulse im Aktometer innerhalb von 45 min” value (Mäuse [7]; [18]) was 125±25 and the “Anzahl der Impulse im Aktometer innerhalb von 45 min” value (Mäuse [7]; [19]) was 108±21. The “Anzahl der Impulse im Aktometer innerhalb von 45 min” value (Mäuse [7]; [20]) was 109±47, the “Anzahl der Impulse im Aktometer innerhalb von 45 min” value (Mäuse [7]; [21]) was 123±17 and the Schlafdauer (Ratten [8]; 25 mg/kg single + Natriumäthaminal 100 mg/kg i.p.) was 314,8±22 min. For the same compound, the Schlafdauer (Ratten [8]; [16]) was 167,4±23 min, the Schlafdauer (Ratten [8]; [17]) was 306,4±16 min and the “Spannung in V, die Schwelle der Aggressivität” value (Mäuse [9]; [18]) was 30±3 V. The “Spannung in V, die Schwelle der emotionellen Reaktivität” value (Mäuse [9]; [18]) was 22±2 V, the “Spannung in V, die Schwelle der Aggressivität” value (Mäuse [9]; [19]) was 29±2 V and the “Spannung in V, die Schwelle der emotionellen Reaktivität” value (Mäuse [9]; [19]) was 23±2 V. The “Spannung in V, die Schwelle der Aggressivität” value (Mäuse [9]; [20]) was 29±2 V, the “Spannung in V, die Schwelle der emotionellen Reaktivität” value (Mäuse [9]; [20]) was 24±3 V and the “Spannung in V, die Schwelle der Aggressivität” value (Mäuse [9]; [21]) was 34±3 V. For the same compound, the “Spannung in V, die Schwelle der emotionellen Reaktivität” value (Mäuse [9]; [21]) was 22±2 V, the “Spannung in V, Schwelle der Agressivität” value (Mäuse [10]; 37 mg/kg) was 29,8±2,4 V and the “Rektaltemperatur vor der Einführung der Verbindung” value (Ratten [11]; 50 mg/kg chronic, 16 days) was 30,7±0,2. For the same compound, the “Rektaltemperatur nach I Stunde an der Kälte” value (Ratten [11]; 50 mg/kg chronic, 16 days) was 27,0±0,3, the “Rektaltemperatur vor der Einführung der Verbindung” value (Ratten [11]; 50 mg/kg single) was 30,4±0,3 and the “Rektaltemperatur nach I Stunde” value (Ratten [11]; 50 mg/kg single) was 30,9±0,3.
